According to patent US5962493A, “2-mercaptobenzimidazole derivatives and antihyperlipemic agent or antiarteriosclerotic agent containing the same” (priority 1997, dated 1999):
Where two headings read alike, the source gives them in different places.

Assays:
[1] = test system: mouse peritoneal macrophage; assay: In vitro tests on inhibition of foaming of macrophage with mouse peritoneal macrophage (cholesteryl ester formation); format: cell-based, mouse (female ICR); details: 16 hours at 37° C., read-out: CE (%) (cholesteryl ester-forming rate, ratio to the control)
Procedure: (1) In vitro tests on inhibition of foaming of macrophage with mouse peritoneal macrophage:
The necks of 15-week old female ICR mice (Japan SLC) were cut off. After blood-letting, Hanks buffer solution (Nissui Seiyaku Co., Ltd.) was injected into the abdominal cavity of each mouse. The abdomen was massaged and then the buffer solution was rapidly recovered, centrifuged at 1000 rotations for 5 minutes to collect the peritoneal macrophages. The peritoneal macrophases thus collected were then suspended in GIT medium (Wako Pure Chemical Industries, Ltd.), and the suspension was spread on a 24-hole microplate. After the cultivation at 37° C. in 5% CO2 for 2 hours, the medium was replaced with a Dulbecoo Modified Eagle's MEM medium (Nissui Seiyaku Co., Ltd.). After the cultivation at 37° C. in 5% CO2 for additional 16 hours, the following substances were added in the following order:
(1) subject: dissolved in DMSO (Wako Pure Chemical Industries, Ltd.)
PC: phosphatidyl choline (a product of Funakoshi)
PS: phosphatidyl serine (ditto)
DCP: dicetyl phosphate (ditto)
CHOL.: cholesterol (Sigma).
After further cultivation at 37° C. in 5% CO2 for 16 hours, the lipid fraction was extracted with chloroform and methanol. The lipid fraction thus extracted was dissolved in isopropyl alcohol, and the formed cholesteryl ester (CE) was determined by an enzymatic coloring method. The cholesteryl ester-forming rate of each compound was calculated in terms of the ratio thereof to the control. The cytotoxicity was examined by microscopic observation of the shape of the cell.
The pharmacological effects of the compounds given in Table 2 were evaluated in the same manner as that of Example 3.

[2] = test system: mouse peritoneal macrophage; details: dose 5 μM, microscopic observation

## c1ccc2[nH]c(SCCOCCSc3nc4ccccc4[nH]3)nc2c1 [Compound (1)]
[1]; Table 1, ratio to control
  activity at 5 µM: 25%
[2]; Table 1
  Cytotoxicity: none

## CCCC(=O)n1c(SCCOCCSc2nc3ccccc3n2C(=O)CCC)nc2ccccc21 [Compound (3)]
[1]; Table 1, ratio to control
  activity at 5 µM: 15%
[2]; Table 1
  Cytotoxicity: none

## CCCCCC(=O)n1c(SCCOCCSc2nc3ccccc3n2C(=O)CCCCC)nc2ccccc21 [Compound (5)]
[1]; Table 1, ratio to control
  activity at 5 µM: 20%
[2]; Table 1
  Cytotoxicity: none

## CCCCCCCC(=O)n1c(SCCOCCSc2nc3ccccc3n2C(=O)CCCCCCC)nc2ccccc21 [Compound (6)]
[1]; Table 1, ratio to control
  activity at 5 µM: 26%
[2]; Table 1
  Cytotoxicity: none

## CCCCCCCCCCCCCC(=O)n1c(SCCOCCSc2nc3ccccc3n2C(=O)CCCCCCCCCCCCC)nc2ccccc21 [Compound (7)]
[1]; Table 1, ratio to control
  activity at 5 µM: 74%
[2]; Table 1
  Cytotoxicity: none

## CCCn1c(SCCOCCSc2nc3ccccc3n2CCC)nc2ccccc21 [Compound (8)]
[1]; Table 1, ratio to control
  activity at 5 µM: 16%
[2]; Table 1
  Cytotoxicity: none

## CCCCCCCCn1c(SCCOCCSc2nc3ccccc3n2CCCCCCCC)nc2ccccc21 [Compound (9)]
[1]; Table 1, ratio to control
  activity at 5 µM: 28%
[2]; Table 1
  Cytotoxicity: none

## c1ccc(Cn2c(SCCOCCSc3nc4ccccc4n3Cc3ccccc3)nc3ccccc32)cc1 [Compound (10)]
[1]; Table 1, ratio to control
  activity at 5 µM: 76%
[2]; Table 1
  Cytotoxicity: none

## Cc1ccc2[nH]c(SCCOCCSc3nc4cc(C)ccc4[nH]3)nc2c1 [Compound (11)]
[1]; Table 1, ratio to control
  activity at 5 µM: 38%
[2]; Table 1
  Cytotoxicity: none

## Cc1cc2nc(SCCOCCSc3nc4cc(C)c(C)cc4[nH]3)[nH]c2cc1C [Compound (13)]
[1]; Table 1, ratio to control
  activity at 5 µM: 45%
[2]; Table 1
  Cytotoxicity: none

## Clc1ccc2[nH]c(SCCOCCSc3nc4cc(Cl)ccc4[nH]3)nc2c1 [Compound (14)]
[1]; Table 1, ratio to control
  activity at 5 µM: 18%
[2]; Table 1
  Cytotoxicity: none

## Clc1cc2nc(SCCOCCSc3nc4cc(Cl)c(Cl)cc4[nH]3)[nH]c2cc1Cl [Compound (16)]
[1]; Table 1, ratio to control
  activity at 5 µM: 46%
[2]; Table 1
  Cytotoxicity: none

## CCC(=O)n1c(SCCOCCSc2nc3cc(Cl)c(Cl)cc3n2C(=O)CC)nc2cc(Cl)c(Cl)cc21 [Compound (17)]
[1]; Table 1, ratio to control
  activity at 5 µM: 27%
[2]; Table 1
  Cytotoxicity: none

## O=[N+]([O-])c1ccc2[nH]c(SCCOCCSc3nc4cc([N+](=O)[O-])ccc4[nH]3)nc2c1 [Compound (18)]
[1]; Table 1, ratio to control
  activity at 5 µM: 10%
[2]; Table 1
  Cytotoxicity: none

## c1ccc2[nH]c(SCCOCCOCCSc3nc4ccccc4[nH]3)nc2c1 [Compound (19)]
[1]; Table 1, ratio to control
  activity at 5 µM: 11%
[2]; Table 1
  Cytotoxicity: none

## CCC(=O)n1c(SCCOCCOCCSc2nc3ccccc3n2C(=O)CC)nc2ccccc21 [Compound (20)]
[1]; Table 1, ratio to control
  activity at 5 µM: 69%
[2]; Table 1
  Cytotoxicity: none

## CCCn1c(SCCOCCOCCSc2nc3ccccc3n2CCC)nc2ccccc21 [Compound (21)]
[1]; Table 1, ratio to control
  activity at 5 µM: 23%
[2]; Table 1
  Cytotoxicity: none

## c1ccc2[nH]c(SCCOCCOCCOCCSc3nc4ccccc4[nH]3)nc2c1 [Compound (22)]
[1]; Table 1, ratio to control
  activity at 5 µM: 22%
[2]; Table 1
  Cytotoxicity: none

## Cc1ccc2[nH]c(SCCCCCSc3nc4cc(C)ccc4[nH]3)nc2c1 [Compound I-1, 1,5-bis(5-methyl-2-benzimidazoylthio)pentane]
[2]; Table 2
  Cytotoxicity: none

## Cc1cc2nc(SCCCCCSc3nc4cc(C)c(C)cc4[nH]3)[nH]c2cc1C [Compound I-2, 1,5-bis(5,6-dimethyl-2-benzimidazoylthio)pentane]
[2]; Table 2
  Cytotoxicity: none

## Clc1ccc2[nH]c(SCCCCCSc3nc4cc(Cl)ccc4[nH]3)nc2c1 [Compound I-3, 1,5-bis(5-chloro-2-benzimidazoylthio)pentane]
[2]; Table 2
  Cytotoxicity: none

## Clc1cc2nc(SCCCCCSc3nc4cc(Cl)c(Cl)cc4[nH]3)[nH]c2cc1Cl [Compound I-4, 1,5-bis(5,6-dichloro-2-benzimidazoylthio)Pentane]
[2]; Table 2
  Cytotoxicity: none

## CC(=O)n1c(SCCCCCSc2nc3ccccc3n2C(C)=O)nc2ccccc21 [II-1, 1,5-bis(1-acetyl-2-benzimidazoylthio)pentane]
[2]; Table 2
  Cytotoxicity: none

## CCC(=O)n1c(SCCCCCSc2nc3ccccc3n2C(=O)CC)nc2ccccc21 [II-2, 1,5-bis(1-propionyl-2-benzimidazoylthio)pentane]
[2]; Table 2
  Cytotoxicity: none

## CCCCC(CC)C(=O)n1c(SCCCCCSc2nc3ccccc3n2C(=O)C(CC)CCCC)nc2ccccc21 (stereo not shown) [II-4, 1,5-bis(1-(2-ethylhexanoyl)-2-benzimidazoylthio) pentane]
[2]; Table 2
  Cytotoxicity: none

## O=C(c1ccc(Cl)cc1)n1c(SCCCCCSc2nc3ccccc3n2C(=O)c2ccc(Cl)cc2)nc2ccccc21 [II-6, 1,5-bis(1-(4-chlorobenzoyl)-2-benzimidazoylthio) pentane]
[2]; Table 2
  Cytotoxicity: none

## CCC(=O)n1c(SCCCCSc2nc3ccccc3n2C(=O)CC)nc2ccccc21 [II-9, 1,4-bis(1-propionyl-2-benzimidazoylthio)butane]
[2]; Table 2
  Cytotoxicity: none

## CCC(=O)n1c(SCCCCCCSc2nc3ccccc3n2C(=O)CC)nc2ccccc21 [II-10, 1,6-bis(1-propionyl-2-benzimidazoylthio)hexane]
[2]; Table 2
  Cytotoxicity: none

## CCC(=O)n1c(SCCCCCCCCSc2nc3ccccc3n2C(=O)CC)nc2ccccc21 [II-11, 1,8-bis(1-propionyl-2-benzimidazoyl-thio)octane]
[2]; Table 2
  Cytotoxicity: none

## CCC(=O)n1c(SCc2ccc(CSc3nc4ccccc4n3C(=O)CC)cc2)nc2ccccc21 [II-12, 1,4-bis(1-propionyl-2-benzimidazoylthiomethyl)benzene]
[2]; Table 2
  Cytotoxicity: none

## CCC(=O)n1c(SCc2cccc(CSc3nc4ccccc4n3C(=O)CC)c2)nc2ccccc21 [II-13, 1,3-bis(1-propionyl-2-benzimidazoylthiomethyl)benzene]
[2]; Table 2
  Cytotoxicity: none

## CCC(=O)n1c(SCCCCCSc2nc3cc(C)c(C)cc3n2C(=O)CC)nc2cc(C)c(C)cc21 [II-15, 1,5-bis(5,6-dimethyl-1-propionyl-2-benzimidazoylthio) pentane]
[2]; Table 2
  Cytotoxicity: none

## CCC(=O)n1c(SCCCCCSc2nc3ccc(Cl)cc3n2C(=O)CC)nc2cc(Cl)ccc21 [II-20, 1-(5-chloro-1-propionyl-2-benzimidazoylthio)-5-(6-chloro-1-propionyl-2-benzimidazoylthio)pentane]
[2]; Table 2
  Cytotoxicity: none

## Cn1c(SCCCCCSc2nc3ccccc3n2C)nc2ccccc21 [II-28, 1,5-bis(1-methyl-2-benzimidazoylthio)pentane]
[2]; Table 2
  Cytotoxicity: none

## CCCn1c(SCCCCCSc2nc3ccccc3n2CCC)nc2ccccc21 [II-29, 1,5-bis(1-propyl-2-benzimidazoylthio)pentane]
[2]; Table 2
  Cytotoxicity: none

## CCCCCCCCn1c(SCCCCCSc2nc3ccccc3n2CCCCCCCC)nc2ccccc21 [II-30, 1,5-bis(l-octyl-2-benzimidazoylthio)pentane]
[2]; Table 2
  Cytotoxicity: none

## CCCCC(CC)Cn1c(SCCCCCSc2nc3ccccc3n2CC(CC)CCCC)nc2ccccc21 (stereo not shown) [II-31, 1,5-bis(1-(2-ethylhexyl)-2-benzimidazoylthio)pentane]
[2]; Table 2
  Cytotoxicity: none

## c1ccc(Cn2c(SCCCCCSc3nc4ccccc4n3Cc3ccccc3)nc3ccccc32)cc1 [II-32, 1.5-bis(1-benzyl-2-benzimidazoylthio)pentane]
[2]; Table 2
  Cytotoxicity: none

## Cn1c(SCCCCCSc2nc3cc(Cl)c(Cl)cc3n2C)nc2cc(Cl)c(Cl)cc21 [II-33, 1,5-bis(5,6-dichloro-1-methyl-2-benzimidazoylthio) pentane]
[2]; Table 2
  Cytotoxicity: none

## CCCn1c(SCCCCCSc2nc3cc(Cl)c(Cl)cc3n2CCC)nc2cc(Cl)c(Cl)cc21 [II-34, 1,5-bis(5,6-dichloro-1-propyl-2-benzimidazoylthio) pentane]
[2]; Table 2
  Cytotoxicity: none

## Cn1c(SCCCCCCCCSc2nc3ccccc3n2C)nc2ccccc21 [II-35, 1,8-bis(1-methyl-2-benzimidazoylthio)octane]
[2]; Table 2
  Cytotoxicity: none

## c1ccc2[nH]c(SCCCCCCSc3nc4ccccc4[nH]3)nc2c1 [IV-1, 1,6-bis(2-benzimidazoylthio)hexane]
[1]; Table 2, ratio to control
  activity at 5 µM: 28%
[2]; Table 2
  Cytotoxicity: none

## c1ccc2[nH]c(SCCCCSc3nc4ccccc4[nH]3)nc2c1 [IV-3, 1,4-bis(2-benzimidazoylthio)butane]
[2]; Table 2
  Cytotoxicity: none

## COc1ccc2[nH]c(SCCCCCSc3nc4cc(OC)ccc4[nH]3)nc2c1 [IV-4, 1,5-bis(5-methoxyl-2-benzimidazoylthio)pentane]
[2]; Table 2
  Cytotoxicity: none

## O=[N+]([O-])c1ccc2[nH]c(SCCCCCSc3nc4cc([N+](=O)[O-])ccc4[nH]3)nc2c1 [IV-5, 1,5-bis(5-nitro-2-benzimidazoylthio)pentane]
[2]; Table 2
  Cytotoxicity: none

## CCC(=O)Nc1ccc2[nH]c(SCCCCCSc3nc4cc(NC(=O)CC)ccc4[nH]3)nc2c1 [IV-8, 1,5-bis(5-propanamido-2-benzimidazoylthio)pentane]
[2]; Table 2
  Cytotoxicity: none

## c1ccc2[nH]c(SCc3ccc(CSc4nc5ccccc5[nH]4)cc3)nc2c1 [IV-13, 1,4-bis(2-benzimidazoylthiomethyl)benzene]
[2]; Table 2
  Cytotoxicity: none

## c1cc(CSc2nc3ccccc3[nH]2)cc(CSc2nc3ccccc3[nH]2)c1 [IV-14, 1,3-bis(2-benzimidazoylthiomethyl)benzene]
[2]; Table 2
  Cytotoxicity: none
